Laboratory results taken from PMC8595825 (Journal of medicinal chemistry, 2021).

Experiments:
[1] = test system: M. bovis BCG cell membrane; conditions: for membrane permeabilizing effect: 4× MIC90, after 8 h of exposure; for time at which permeabilization was observed: 4× MIC90, attributed to onset of cell death
[2] = test system: reactive oxygen species (ROS) in M. bovis BCG; format: cell-based, Mycobacterium bovis BCG; conditions: for dose-dependent ROS production: 0.25×–2× MIC90, 90 min; for ROS levels at higher dose: 2× MIC90
[3] = test system: Vero (African Green Monkey kidney epithelial cells); test: Cytotoxicity against mammalian Vero cells; format: cell-based; conditions: IC50 Vero/MIC50 Mtb
[4] = test system: M. smegmatis mc^2155 IMVs; test: Oxygen consumption and hydrogen peroxide production by IMVs; format: biochemical
M. smegmatis IMVs = test: Transmembrane pH gradient dissipation in IMVs; format: biochemical; conditions: 1 and 2 μM
[5] = In vivo pharmacokinetics in mice; conditions: mouse; for bioavailability: po, 50 mg/kg
[6] = test system: nutrient-starved M. tuberculosis H37Rv; test: Loebel model, nutrient-starved nonreplicating cultures; format: cell-based, Mycobacterium tuberculosis H37Rv; conditions: 40× MIC90 (64 μM); 7 days
M. bovis BCG [7] = format: cell-based, Mycobacterium bovis BCG
mini-Ames test = format: cell-based
[8] = molecular target: NDH2 in IMVs of M. smegmatis mc^2155 (Mycolicibacterium smegmatis, UniProt A0QYD6); test: NADH oxidation in inverted membrane vesicles; format: biochemical; conditions: KCN, 20 mM
NDH2 in IMVs of M. smegmatis mc^2155, sequence (A0QYD6 1-457): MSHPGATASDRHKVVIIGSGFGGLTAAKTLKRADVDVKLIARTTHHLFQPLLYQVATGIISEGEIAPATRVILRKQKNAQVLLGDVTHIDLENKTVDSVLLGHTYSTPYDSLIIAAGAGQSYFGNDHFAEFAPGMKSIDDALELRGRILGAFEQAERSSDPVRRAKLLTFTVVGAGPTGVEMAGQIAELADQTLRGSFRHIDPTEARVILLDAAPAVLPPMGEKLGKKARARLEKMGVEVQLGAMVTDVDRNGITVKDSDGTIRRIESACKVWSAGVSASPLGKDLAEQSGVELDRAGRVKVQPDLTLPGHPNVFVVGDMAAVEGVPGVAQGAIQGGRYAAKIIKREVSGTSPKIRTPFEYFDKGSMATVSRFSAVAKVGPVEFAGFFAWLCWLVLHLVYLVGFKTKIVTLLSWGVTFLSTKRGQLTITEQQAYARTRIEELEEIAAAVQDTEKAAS

[9] = test system: M. bovis BCG cell membrane; format: cell-based, Mycobacterium bovis BCG; conditions: 4× MIC90 (1.2 μM); for membrane depolarizing effect: after 8 h of exposure; for time at which red/green fluorescence ratio significantly decreased: coincided with onset of cell death
M. bovis BCG [10] = format: cell-based, Mycobacterium bovis BCG; remark: listed apart in the source
M. bovis BCG [11] = format: cell-based, Mycobacterium bovis BCG; conditions: N-acetylcysteine, TEMPO, thiourea
pfurA promoter = format: cell-based, Mycobacterium bovis BCG; conditions: 0.5× to 2× MIC90, 24 h
M. bovis BCG [12] = format: cell-based, Mycobacterium bovis BCG; conditions: 32 at its MIC90 + vitamin C 2.5 mM, 5 days
[13] = Metabolic stability in rat microsomes; format: in vitro ADME
piniBAC promoter = format: cell-based, Mycobacterium bovis BCG; conditions: 0.4–25 μM, 24 h
[14] = test system: M. bovis BCG katG mutant strain; format: cell-based, Mycobacterium bovis BCG

CCCCCCCCn1c2c([n+](CCCC)c1C)C(=O)c1ccccc1C2=O.[Br-] [compound 32]
membrane permeabilizing effect [1]: Neither compound induced depolarizing or permeabilizing effects | time at which permeabilization was observed [1]: 24 h | dose-dependent ROS production [2]: duly observed | SI (selectivity index) [3]: > 25 | oxygen consumption in IMVs energized by NADH compared to malate [4]: ~ 1.8 fold | protonophore activity (pH gradient dissipation) (M. smegmatis IMVs): only moderate rates of pH gradient dissipation | Vd [5]: 27 to 35 L/kg | clearance [5]: 38 to 55 mL/min/kg | half-life [5]: 7 to 10 h | bioavailability [5]: 1 to 2% | bactericidal effect, Loebel model [6]: substantially reduced CFUs to levels equivalent to or below the detection limit | pMIC90 (M. bovis BCG [7]): > 0.5 | mutagenicity, mini-Ames test (mini-Ames test): not mutagenic | stimulation of NADH oxidation with cyanide [8]: retained the ability to stimulate NADH oxidation | membrane depolarizing effect [9]: Neither compound induced depolarizing or permeabilizing effects | time at which red/green fluorescence ratio significantly decreased [9]: 48 h | time-kill outcome (M. bovis BCG [10]; 8× MIC90, 28 days): CFUs were not detected from day 21 onward | effect of antioxidants on growth inhibitory MIC BCG (M. bovis BCG [11]): did not diminish the growth inhibitory potency | pfurA activation (fluorescence) (pfurA promoter): induced dose-dependent increases in fluorescence | Log10 CFU counts with vitamin C added (M. bovis BCG [12]): nearly halved | half-life [13]: 0.333 to 0.383 h | piniBAC promoter activity (fluorescence) (piniBAC promoter): no increase in fluorescence

CCCCCC[n+]1c2c(n(CC(C)C)c1C)C(=O)c1ccccc1C2=O.[Br-] [compound 34]
pMIC90 (M. bovis BCG [7]): > 0.5

CCCCCCCC[n+]1c2c(n(CC(C)C)c1C)C(=O)c1ccccc1C2=O.[Br-] [compound 35]
pMIC90 (M. bovis BCG [7]): > 0.5

CCCCCCCn1c2c([n+](CCCCC)c1C)C(=O)c1ccccc1C2=O.[Br-] [compound 48]
membrane permeabilizing effect [1]: Neither compound induced depolarizing or permeabilizing effects | time at which permeabilization was observed [1]: 48 h | dose-dependent ROS production [2]: duly observed | SI (selectivity index) [3]: > 25 | bactericidal effect, Loebel model [6]: substantially reduced CFUs to levels equivalent to or below the detection limit | pMIC90 (M. bovis BCG [7]): > 0.5 | membrane depolarizing effect [9]: Neither compound induced depolarizing or permeabilizing effects | time at which red/green fluorescence ratio significantly decreased [9]: 24 h | pfurA activation (fluorescence) (pfurA promoter): induced dose-dependent increases in fluorescence | piniBAC promoter activity (fluorescence) (piniBAC promoter): no increase in fluorescence

CCCCCCn1c2c([n+](CCCCCC)c1C)C(=O)c1ccccc1C2=O.[Br-] [compound 50]
pMIC90 (M. bovis BCG [7]): > 0.5

CCCCn1c2c([n+](C3CCC4(CCCCC4)CC3)c1C)C(=O)c1ccccc1C2=O.[Br-] [compound 61]
dose-dependent ROS production [2]: duly observed | Vd [5]: 27 to 35 L/kg | clearance [5]: 38 to 55 mL/min/kg | half-life [5]: 7 to 10 h | bioavailability [5]: 1 to 2% | activity against katG mutant strain [14]: a shift to lower MICs was not evident | mutagenicity, mini-Ames test (mini-Ames test): not mutagenic | pfurA activation (fluorescence) (pfurA promoter): induced dose-dependent increases in fluorescence | half-life [13]: 0.333 to 0.383 h | piniBAC promoter activity (fluorescence) (piniBAC promoter): no increase in fluorescence

CCCCCCn1c(C)nc2c1C(=O)c1ccccc1C2=O [compound 72]
ROS levels at higher dose [2]: increased ROS levels but not to the levels induced by the actives at comparable doses | pfurA activation (fluorescence) (pfurA promoter): less evident

CCCCCCCCn1c(C)nc2c1C(=O)c1ccccc1C2=O [compound 73]
ROS levels at higher dose [2]: increased ROS levels but not to the levels induced by the actives at comparable doses | pfurA activation (fluorescence) (pfurA promoter): less evident

NNC(=O)c1ccncc1 [isoniazid, reference compound]
activity against katG mutant strain [14]: inactive against the mutant strain | time-kill outcome, colony growth by Day 28 (M. bovis BCG [10]; 4× MIC90 (12.8 μM)): comparable to the drug-free cultures | piniBAC promoter activity (fluorescence) (piniBAC promoter): duly increased piniBAC promoter activity
